From the NIST ThermoML archive (doi:10.1016/j.jct.2015.08.014)
± gives the expanded uncertainty stated by the source.

Assay: xn = mol fraction of the nth substance listed
Conditions: 293.15 K, 100 kPa, Liquid, Alternating current cell with electrodes

CCCC[N+]1(C)CCCC1.N#CN=C=[N-] [1-butyl-1-methylpyrrolidinium dicyanamide] + O=C1CCCO1
Conditions | electrical conductivity [S/m]
Frequency=0.0015 MHz, x1 = 0.3029 | 2.29 ± 0.023
Frequency=0.0015 MHz, x1 = 0.3845 | 2.112 ± 0.021
Frequency=0.0015 MHz, x1 = 0.4985 | 1.84 ± 0.019
Frequency=0.0015 MHz, x1 = 0.6954 | 1.46 ± 0.015
Frequency=0.0015 MHz, x1 = 0.9013 | 1.19 ± 0.012
Frequency=0.0015 MHz, x1 = 1 | 1.123 ± 0.011
Frequency=0.002 MHz, x1 = 0.0463 | 1.37 ± 0.024
Frequency=0.002 MHz, x1 = 0.0987 | 2.04 ± 0.025
Frequency=0.002 MHz, x1 = 0.1449 | 2.31 ± 0.024
Frequency=0.002 MHz, x1 = 0.1859 | 2.443 ± 0.024
Frequency=0.002 MHz, x1 = 0.2493 | 2.37 ± 0.024
Frequency=0.002 MHz, x1 = 0.3029 | 2.29 ± 0.023
Frequency=0.002 MHz, x1 = 0.3845 | 2.113 ± 0.021
Frequency=0.002 MHz, x1 = 0.4985 | 1.84 ± 0.019
Frequency=0.002 MHz, x1 = 0.6954 | 1.46 ± 0.015
Frequency=0.002 MHz, x1 = 0.9013 | 1.19 ± 0.012
Frequency=0.002 MHz, x1 = 1 | 1.123 ± 0.011
Frequency=0.0025 MHz, x1 = 0.0463 | 1.37 ± 0.024
Frequency=0.0025 MHz, x1 = 0.0987 | 2.04 ± 0.025
Frequency=0.0025 MHz, x1 = 0.1449 | 2.31 ± 0.024
Frequency=0.0025 MHz, x1 = 0.1859 | 2.445 ± 0.024
Frequency=0.0025 MHz, x1 = 0.2493 | 2.37 ± 0.024
Frequency=0.0025 MHz, x1 = 0.3029 | 2.29 ± 0.023
Frequency=0.0025 MHz, x1 = 0.3845 | 2.114 ± 0.021
Frequency=0.0025 MHz, x1 = 0.4985 | 1.84 ± 0.019
Frequency=0.0025 MHz, x1 = 0.6954 | 1.46 ± 0.015
Frequency=0.0025 MHz, x1 = 0.9013 | 1.19 ± 0.012
Frequency=0.0025 MHz, x1 = 1 | 1.123 ± 0.011
Frequency=0.003 MHz, x1 = 0.0463 | 1.37 ± 0.024
Frequency=0.003 MHz, x1 = 0.0987 | 2.05 ± 0.025
Frequency=0.003 MHz, x1 = 0.1449 | 2.31 ± 0.024
Frequency=0.003 MHz, x1 = 0.1859 | 2.45 ± 0.025
Frequency=0.003 MHz, x1 = 0.2493 | 2.37 ± 0.024
Frequency=0.003 MHz, x1 = 0.3029 | 2.29 ± 0.023
Frequency=0.003 MHz, x1 = 0.3845 | 2.114 ± 0.021
Frequency=0.003 MHz, x1 = 0.4985 | 1.84 ± 0.019
Frequency=0.003 MHz, x1 = 0.6954 | 1.46 ± 0.015
Frequency=0.003 MHz, x1 = 0.9013 | 1.19 ± 0.012
Frequency=0.003 MHz, x1 = 1 | 1.123 ± 0.011
Frequency=0.00347222 MHz, x1 = 0.0463 | 1.37 ± 0.024
Frequency=0.00347222 MHz, x1 = 0.0987 | 2.05 ± 0.025
Frequency=0.00347222 MHz, x1 = 0.1449 | 2.31 ± 0.024
Frequency=0.00347222 MHz, x1 = 0.1859 | 2.45 ± 0.025
Frequency=0.00347222 MHz, x1 = 0.2493 | 2.37 ± 0.024
Frequency=0.00347222 MHz, x1 = 0.3029 | 2.29 ± 0.023
Frequency=0.00347222 MHz, x1 = 0.3845 | 2.115 ± 0.021
Frequency=0.00347222 MHz, x1 = 0.4985 | 1.84 ± 0.019
Frequency=0.00347222 MHz, x1 = 0.6954 | 1.46 ± 0.015
Frequency=0.00347222 MHz, x1 = 0.9013 | 1.19 ± 0.012
Frequency=0.00347222 MHz, x1 = 1 | 1.123 ± 0.011
Frequency=0.004 MHz, x1 = 0.0463 | 1.37 ± 0.024
Frequency=0.004 MHz, x1 = 0.0987 | 2.05 ± 0.025
Frequency=0.004 MHz, x1 = 0.1449 | 2.31 ± 0.024
Frequency=0.004 MHz, x1 = 0.1859 | 2.45 ± 0.025
Frequency=0.004 MHz, x1 = 0.2493 | 2.37 ± 0.024
Frequency=0.004 MHz, x1 = 0.3029 | 2.29 ± 0.023
Frequency=0.004 MHz, x1 = 0.3845 | 2.115 ± 0.021
Frequency=0.004 MHz, x1 = 0.4985 | 1.84 ± 0.019
Frequency=0.004 MHz, x1 = 0.6954 | 1.46 ± 0.015
Frequency=0.004 MHz, x1 = 0.9013 | 1.19 ± 0.012
Frequency=0.004 MHz, x1 = 1 | 1.123 ± 0.011
Frequency=0.00446429 MHz, x1 = 0.0463 | 1.37 ± 0.024
Frequency=0.00446429 MHz, x1 = 0.0987 | 2.05 ± 0.025
Frequency=0.00446429 MHz, x1 = 0.1449 | 2.31 ± 0.024
Frequency=0.00446429 MHz, x1 = 0.1859 | 2.45 ± 0.025
Frequency=0.00446429 MHz, x1 = 0.2493 | 2.37 ± 0.024
Frequency=0.00446429 MHz, x1 = 0.3029 | 2.29 ± 0.023
Frequency=0.00446429 MHz, x1 = 0.3845 | 2.115 ± 0.021
Frequency=0.00446429 MHz, x1 = 0.4985 | 1.84 ± 0.019
Frequency=0.00446429 MHz, x1 = 0.6954 | 1.46 ± 0.015
Frequency=0.00446429 MHz, x1 = 0.9013 | 1.19 ± 0.012
Frequency=0.00446429 MHz, x1 = 1 | 1.123 ± 0.011
Frequency=0.005 MHz, x1 = 0.0463 | 1.37 ± 0.024
Frequency=0.005 MHz, x1 = 0.0987 | 2.05 ± 0.025
Frequency=0.005 MHz, x1 = 0.1449 | 2.31 ± 0.024
Frequency=0.005 MHz, x1 = 0.1859 | 2.45 ± 0.025
Frequency=0.005 MHz, x1 = 0.2493 | 2.37 ± 0.024
Frequency=0.005 MHz, x1 = 0.3029 | 2.29 ± 0.023
Frequency=0.005 MHz, x1 = 0.3845 | 2.115 ± 0.021
Frequency=0.005 MHz, x1 = 0.4985 | 1.84 ± 0.019
Frequency=0.005 MHz, x1 = 0.6954 | 1.46 ± 0.015
Frequency=0.005 MHz, x1 = 0.9013 | 1.19 ± 0.012
Frequency=0.005 MHz, x1 = 1 | 1.123 ± 0.011
Frequency=0.005454 MHz, x1 = 0.0463 | 1.37 ± 0.024
Frequency=0.005454 MHz, x1 = 0.0987 | 2.05 ± 0.025
Frequency=0.005454 MHz, x1 = 0.1449 | 2.31 ± 0.024
Frequency=0.005454 MHz, x1 = 0.1859 | 2.45 ± 0.025
Frequency=0.005454 MHz, x1 = 0.2493 | 2.37 ± 0.024
Frequency=0.005454 MHz, x1 = 0.3029 | 2.29 ± 0.023
Frequency=0.005454 MHz, x1 = 0.3845 | 2.116 ± 0.021
Frequency=0.005454 MHz, x1 = 0.4985 | 1.84 ± 0.019
Frequency=0.005454 MHz, x1 = 0.6954 | 1.46 ± 0.015
Frequency=0.005454 MHz, x1 = 0.9013 | 1.19 ± 0.012
Frequency=0.005454 MHz, x1 = 1 | 1.123 ± 0.011
Frequency=0.006 MHz, x1 = 0.0463 | 1.37 ± 0.024
Frequency=0.006 MHz, x1 = 0.0987 | 2.05 ± 0.025
Frequency=0.006 MHz, x1 = 0.1449 | 2.31 ± 0.024
Frequency=0.006 MHz, x1 = 0.1859 | 2.45 ± 0.025
Frequency=0.006 MHz, x1 = 0.2493 | 2.37 ± 0.024
Frequency=0.006 MHz, x1 = 0.3029 | 2.29 ± 0.023
Frequency=0.006 MHz, x1 = 0.3845 | 2.116 ± 0.021
Frequency=0.006 MHz, x1 = 0.4985 | 1.84 ± 0.019
Frequency=0.006 MHz, x1 = 0.6954 | 1.46 ± 0.015
Frequency=0.006 MHz, x1 = 0.9013 | 1.19 ± 0.012
Frequency=0.006 MHz, x1 = 1 | 1.123 ± 0.011
Frequency=0.00652174 MHz, x1 = 0.0463 | 1.37 ± 0.024
Frequency=0.00652174 MHz, x1 = 0.0987 | 2.05 ± 0.025
